Test system: PBMC cultures from HIV-1 infected subjects on cART
Assay: Induced cytokines and chemokines in PBMC cultures from HIV-1 infected subjects on cART (multiplexed Luminex)
Format: cell-based, human
Conditions: day 2, geometric mean, 4 subjects
Method: To further characterize the immune modulatory effect of TLR8 agonists in cells from HIV-infected subjects, the production of secreted cytokines and chemokines was measured in PBMCs from 4 HIV-infected subjects on suppressive cART (anonymized participant IDs 180-183). PBMCs were purified, as described in Example 121, and immediately added to tissue culture plates pre-equilibrated at 37° C. with media containing DMSO (vehicle control) or with the TLR8 modulating compound Example 15 at concentrations ranging from 1.0 nM to 10.0 μM. On day 2 after treatment, cell-free culture supernatants were collected and frozen at −80 C for subsequent analysis. Frozen supernatants were thawed at room temperature, and the indicated cytokines and chemokines were quantified with a custom multiplexed xMAP Luminex® assay following the manufacturer's instructions (Thermo Fisher Scientific Inc., Grand Island, N.Y., custom-designed kit).
Data are expressed as geometric mean cytokine values (pg/ml) obtained from 4 subjects' PBMCs. Geometric mean fold-activation from three independent incubation samples for each condition. Fold (fold-activation) is calculated as a ratio of the concentration of cytokine detected in cell culture supernatants from agonist treated samples relative to DMSO treated samples

## CCCC[C@H](CO)Nc1nc(N)nc2cccnc12 [Example 15]
Ex 15 1 nM
  GRO-α: 31 pg/mL
  GRO-α Fold vs DMSO: 1 fold
  Granzyme B: 80 pg/mL
  Granzyme B Fold vs DMSO: <1 fold
  I-TAC: 82 pg/mL
  I-TAC Fold vs DMSO: 2 fold
  IFN-α: 4 pg/mL
  IFN-α Fold vs DMSO: 2 fold
  IFN-γ: 50 pg/mL
  IFN-γ Fold vs DMSO: 2 fold
  IL-6 pg/ml: 61 pg/mL
  IL-8 pg/ml: 624 pg/mL
  IL-10 pg/ml: 25 pg/mL
  IL-18 pg/ml: 23 pg/mL
  IL-23 pg/ml: 131 pg/mL
  IL-1RA: 11610 pg/mL
  IL-1RA Fold vs DMSO: 3 fold
  IL-1β: 5 pg/mL
  IL-1β Fold vs DMSO: 2 fold
  IL-6 Fold vs DMSO: 1 fold
  IL-8 Fold vs DMSO: 2 fold
  IL-10 Fold vs DMSO: 1 fold
  IL-18 Fold vs DMSO: 1 fold
  IL-23 Fold vs DMSO: 2 fold
  IP-10 pg/ml: 696 pg/mL
  IP-10 Fold vs DMSO: 3 fold
  MCP-1 pg/ml: 180 pg/mL
  MCP-1 Fold vs DMSO: 3 fold
  MIP-1α: 251 pg/mL
  MIP-1α Fold vs DMSO: 5 fold
  MIP-1β: 2189 pg/mL
  MIP-1β Fold vs DMSO: 2 fold
  MIP-3α: 23 pg/mL
  MIP-3α Fold vs DMSO: 1 fold
  MMP-1 pg/ml: 119 pg/mL
  MMP-1 Fold vs DMSO: 1 fold
Ex 15 10 nM
  GRO-α: 29 pg/mL
  GRO-α Fold vs DMSO: 1 fold
  Granzyme B: 74 pg/mL
  Granzyme B Fold vs DMSO: <1 fold
  I-TAC: 70 pg/mL
  I-TAC Fold vs DMSO: 1 fold
  IFN-α: 4 pg/mL
  IFN-α Fold vs DMSO: 2 fold
  IFN-γ: 48 pg/mL
  IFN-γ Fold vs DMSO: 2 fold
  IL-6 pg/ml: 61 pg/mL
  IL-8 pg/ml: 333 pg/mL
  IL-10 pg/ml: 21 pg/mL
  IL-18 pg/ml: 26 pg/mL
  IL-23 pg/ml: 86 pg/mL
  IL-1RA: 5309 pg/mL
  IL-1RA Fold vs DMSO: 1 fold
  IL-1β: 2 pg/mL
  IL-1β Fold vs DMSO: 1 fold
  IL-6 Fold vs DMSO: 1 fold
  IL-8 Fold vs DMSO: 1 fold
  IL-10 Fold vs DMSO: 1 fold
  IL-18 Fold vs DMSO: 2 fold
  IL-23 Fold vs DMSO: 1 fold
  IP-10 pg/ml: 259 pg/mL
  IP-10 Fold vs DMSO: 1 fold
  MCP-1 pg/ml: 91 pg/mL
  MCP-1 Fold vs DMSO: 1 fold
  MIP-1α: 70 pg/mL
  MIP-1α Fold vs DMSO: 1 fold
  MIP-1β: 1302 pg/mL
  MIP-1β Fold vs DMSO: 1 fold
  MIP-3α: 23 pg/mL
  MIP-3α Fold vs DMSO: 1 fold
  MMP-1 pg/ml: 104 pg/mL
  MMP-1 Fold vs DMSO: 1 fold
  TNF-α: 35 pg/mL
  TNF-α Fold vs DMSO: 2 fold
Ex 15 100 nM
  GRO-α: 469 pg/mL
  GRO-α Fold vs DMSO: 20 fold
  Granzyme B: 79 pg/mL
  Granzyme B Fold vs DMSO: <1 fold
  I-TAC: 32 pg/mL
  I-TAC Fold vs DMSO: 1 fold
  IFN-α: 3 pg/mL
  IFN-α Fold vs DMSO: 1 fold
  IFN-γ: 49 pg/mL
  IFN-γ Fold vs DMSO: 2 fold
  IL-6 pg/ml: 4424 pg/mL
  IL-8 pg/ml: 2561 pg/mL
  IL-10 pg/ml: 2459 pg/mL
  IL-18 pg/ml: 20 pg/mL
  IL-23 pg/ml: 130 pg/mL
  IL-1RA: 41213 pg/mL
  IL-1RA Fold vs DMSO: 12 fold
  IL-1β: 135 pg/mL
  IL-1β Fold vs DMSO: 45 fold
  IL-6 Fold vs DMSO: 57 fold
  IL-8 Fold vs DMSO: 8 fold
  IL-10 Fold vs DMSO: 145 fold
  IL-12p70 pg/ml: 6 pg/mL
  IL-12p70 Fold vs DMSO: 2 fold
  IL-18 Fold vs DMSO: 1 fold
  IL-23 Fold vs DMSO: 2 fold
  IP-10 pg/ml: 226 pg/mL
  IP-10 Fold vs DMSO: 1 fold
  MCP-1 pg/ml: 2162 pg/mL
  MCP-1 Fold vs DMSO: 33 fold
  MIP-1α: 172 pg/mL
  MIP-1α Fold vs DMSO: 3 fold
  MIP-1β: 1302 pg/mL
  MIP-1β Fold vs DMSO: 1 fold
  MIP-3α: 28 pg/mL
  MIP-3α Fold vs DMSO: 1 fold
  MMP-1 pg/ml: 198 pg/mL
  MMP-1 Fold vs DMSO: 2 fold
  TNF-α: 132 pg/mL
  TNF-α Fold vs DMSO: 6 fold
Ex 15 1000 nM
  GRO-α: 413 pg/mL
  GRO-α Fold vs DMSO: 18 fold
  Granzyme B: 878 pg/mL
  Granzyme B Fold vs DMSO: 4 fold
  I-TAC: 105 pg/mL
